Measurements published in PMC11997999, “Uncovering α-Selectivity for Liver X Receptor Agonists for Lipotoxic Cancer Therapies” (Journal of Medicinal Chemistry, 2025).
Like-named read-outs stand apart in the source and are kept apart here.

Tests used:
LXRβ LBD (GST) = biological target: T1, LXRβ LBD (GST) (Homo sapiens, UniProt P55055); experiment: Time-resolved LXR FRET assay (LanthaScreen TR-FRET LXRβ assay kit); format: biochemical; conditions: for TR-FRET activity on LXRβ, in words: statement made for both isoforms
T1 construct: 5 nM LXRα LBD (GST); 10 nM LXRβ LBD (GST); purchased ThermoFisher Scientific PV4658
T1 sequence (P55055 222-460 limits assumed): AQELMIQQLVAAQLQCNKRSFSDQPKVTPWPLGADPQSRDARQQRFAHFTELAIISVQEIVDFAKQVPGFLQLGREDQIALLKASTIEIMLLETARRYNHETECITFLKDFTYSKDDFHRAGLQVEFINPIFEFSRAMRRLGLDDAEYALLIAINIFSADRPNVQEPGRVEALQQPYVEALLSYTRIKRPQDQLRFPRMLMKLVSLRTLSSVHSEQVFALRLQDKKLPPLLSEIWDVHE
Procedure: (§1) The biochemical TR-FRET assays were performed using the LanthaScreen TR-FRET LXRα Coactivator Assay Kit, goat (ThermoFisher Scientific, PV4655), and the LanthaScreen TR-FRET LXRβ assay kit, goat (ThermoFisher Scientific, PV4658), according to the manufacturer’s instructions using the following concentrations: 5 nM LXRα LBD (GST); 10 nM LXRβ LBD (GST); 500 nM fluorescein-TRAP220/DRIP-2; 200 nM fluorescein-D22; 10 nM Tb anti-GST antibody. The TR-FRET signals were measured after 6 h using a TECAN SPARK multimode microplate reader with the following settings: first excitation wavelength: 360 nm (bandwidth 35 nm), first emission wavelength: 485 nm (bandwidth 20 nm); second excitation wavelength: 360 nm (bandwidth 35 nm), second emission wavelength: 535 nm (bandwidth 25 nm); integration time: 200 μs; lag time: 100 μs; settle time: 0 ms.

LXRα LBD (GST) = biological target: T2, LXRα LBD (GST) (Homo sapiens, UniProt Q13133); experiment: Time-resolved LXR FRET assay (LanthaScreen TR-FRET LXRα Coactivator Assay Kit); format: biochemical; conditions: for TR-FRET activity on LXRα, in words: statement made for both isoforms
T2 construct: 5 nM LXRα LBD (GST); 10 nM LXRβ LBD (GST); purchased ThermoFisher Scientific PV4655
T2 sequence (Q13133 209-447 limits assumed): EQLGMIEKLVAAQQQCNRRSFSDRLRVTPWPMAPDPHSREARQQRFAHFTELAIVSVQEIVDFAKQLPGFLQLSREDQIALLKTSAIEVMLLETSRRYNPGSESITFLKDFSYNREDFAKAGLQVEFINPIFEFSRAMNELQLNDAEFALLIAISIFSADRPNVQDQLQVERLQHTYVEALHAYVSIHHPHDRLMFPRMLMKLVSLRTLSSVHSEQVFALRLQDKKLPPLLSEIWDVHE
Procedure: as §1

[1] = 10 nM LXRβ LBD (GST), read after 6 h, R^2 of fit given, read-out: TR-FRET activity (EC50) LXRβ
[2] = 5 nM LXRα LBD (GST), read after 6 h, R^2 of fit given, read-out: TR-FRET activity (EC50) LXRα
[3] = supplement list of compounds, (LXRβ), unit inferred, read-out: FRET activity b
[4] = supplement list of compounds, LXRα, unit inferred, read-out: FRET activity a

SMILES | EC50 (LXRβ LBD (GST); [1]) [µM] | EC50 (LXRα LBD (GST); [2]) [µM] | TR-FRET activity on LXRβ, in words (LXRβ LBD (GST)) | TR-FRET activity on LXRα, in words (LXRα LBD (GST)) | EC50 (LXRβ LBD (GST); [3]) [µM] | EC50 (LXRα LBD (GST); [4]) [µM]
COc1ccc(NC2=C(c3ccccc3)C(=O)N(C(C)(C)C)C2=O)cc1 [Compound 24, 1-(tert-Butyl)-3-((4-methoxyphenyl)amino)-4-phenyl-1H-pyrrole-2,5-dione] | 0.232 | 0.245 | – | – | – | –
O=C1NC(=O)C(c2ccccc2)=C1Nc1ccc(N2CCCCC2)cc1 [Compound 52, 3-Phenyl-4-((4-(piperidin-1-yl)phenyl)amino)-1H-pyrrole-2,5-dione] | > 3 | > 3 | no activity | no activity | – | –
O=C1C(Nc2ccc(O)cc2)=C(c2ccccc2)C(=O)N1Cc1ccccc1 [Compound 33, 1-Benzyl-3-((4-hydroxyphenyl)amino)-4-phenyl-1H-pyrrole-2,5-dione] | 0.206 | 0.39 | – | – | – | –
CC(C)(C)OC(=O)NC1CCN(c2ccc(NC3=C(c4ccccc4)C(=O)N(Cc4ccccc4)C3=O)cc2)CC1 [Compound 45, tert-Butyl-(1-(4-((1-benzyl-2,5-dioxo-4-phenyl-2,5-dihydro-1H-pyrrol-3-yl)amino)phenyl)piperidin-4-yl)carbamate] | – | – | abolished all activity | abolished all activity | > 3 | > 3
O=C1Cc2cc(NC3=C(c4ccccc4)C(=O)N(Cc4ccccc4)C3=O)ccc2N1 [Compound 37, 1-Benzyl-3-((2-oxoindolin-5-yl)amino)-4-phenyl-1H-pyrrole-2,5-dione] | 0.084 | 0.139 | – | – | – | –
O=C1C(Nc2ccc(N3CCSCC3)cc2)=C(c2ccccc2)C(=O)N1Cc1ccccc1 [Compound 42, 1-Benzyl-3-phenyl-4-((4-thiomorpholinophenyl)amino)-1H-pyrrole-2,5-dione] | 0.123 | 0.05 | – | – | – | –
O=C1C(Nc2ccc(CO)cc2)=C(c2ccccc2)C(=O)N1Cc1ccccc1 [Compound 34, 1-Benzyl-3-((4-(hydroxymethyl)phenyl)amino)-4-phenyl-1H-pyrrole-2,5-dione] | 0.133 | 0.278 | – | – | – | –
COc1cc(NC2=C(c3ccccc3)C(=O)N(Cc3ccccc3)C2=O)cc(OC)c1 [Compound 39, 1-Benzyl-3-((3,5-dimethoxyphenyl)amino)-4-phenyl-1H-pyrrole-2,5-dione] | 1.32 | 0.737 | – | – | – | –
COc1ccc(NC2=C(c3ccccc3)C(=O)N(CC3CC3)C2=O)cc1 [Compound 23, 1-(Cyclopropylmethyl)-3-((4-methoxyphenyl)amino)-4-phenyl-1H-pyrrole-2,5-dione] | 0.163 | 0.342 | – | – | – | –
O=C1C(Nc2ccc(NC3CCNCC3)cc2)=C(c2ccccc2)C(=O)N1Cc1ccccc1 [Compound 47, 1-Benzyl-3-phenyl-4-((4-(piperidin-4-ylamino)phenyl)amino)-1H-pyrrole-2,5-dione] | – | – | – | – | – | 0.618
O=C1C(Nc2ccccc2)=C(c2ccccc2)C(=O)N1Cc1ccccc1 [Compound 29, 1-Benzyl-3-phenyl-4-(phenylamino)-1H-pyrrole-2,5-dione] | 0.265 | 0.312 | – | – | – | –
CN1CCN(c2ccc(NC3=C(c4ccccc4)C(=O)N(Cc4ccccc4)C3=O)cc2)CC1 [Compound 44, 1-Benzyl-3-((4-(4-methylpiperazin-1-yl)phenyl)amino)-4-phenyl-1H-pyrrole-2,5-dione] | – | – | no relevant activity | no relevant activity | 0.657 | 0.379
COc1ccc(NC2=C(c3ccccc3)C(=O)N(Cc3ccncc3)C2=O)cc1 [Compound 21, 3-((4-Methoxyphenyl)amino)-4-phenyl-1-(pyridin-4-ylmethyl)-1H-pyrrole-2,5-dione] | 0.231 | 0.39 | – | – | – | –
COc1ccc(NC2=C(c3ccccc3)C(=O)NC2=O)cc1 [Compound 25, 3-((4-Methoxyphenyl)amino)-4-phenyl-1H-pyrrole-2,5-dione] | > 3 | > 3 | no activity | no activity | – | –
O=C1C(Nc2ccc(F)cc2)=C(c2ccccc2)C(=O)N1Cc1ccccc1 [Compound 31, 1-Benzyl-3-((4-fluorophenyl)amino)-4-phenyl-1H-pyrrole-2,5-dione] | 0.548 | 0.335 | – | – | – | –
O=C1CCN(c2ccc(NC3=C(c4ccccc4)C(=O)N(Cc4ccccc4)C3=O)cc2)CC1 [Compound 49, 1-Benzyl-3-((4-(4-oxopiperidin-1-yl)phenyl)amino)-4-phenyl-1H-pyrrole-2,5-dione] | – | – | – | – | 0.13 | 0.103
COc1ccc(NC2=C(c3ccccc3)C(=O)N(Cc3ccc(C(F)(F)F)cc3)C2=O)cc1 [Compound 18, 3-((4-Methoxyphenyl)amino)-4-phenyl-1-(4-(trifluoromethyl)benzyl)-1H-pyrrole-2,5-dione] | > 3 | > 3 | completely lost potency | completely lost potency | – | –
NC(=O)c1ccc(NC2=C(c3ccccc3)C(=O)N(Cc3ccccc3)C2=O)cc1 [Compound 36, 4-((1-Benzyl-2,5-dioxo-4-phenyl-2,5-dihydro-1H-pyrrol-3-yl)amino)benzamide] | > 3 | > 3 | completely abolished activation | completely abolished activation | – | –
COc1ccc(CNC2=C(c3ccccc3)C(=O)N(Cc3ccccc3)C2=O)cc1 [Compound 28, 1-Benzyl-3-((4-methoxybenzyl)amino)-4-phenyl-1H-pyrrole-2,5-dione] | > 3 | > 3 | no activity | no activity | – | –
O=C1C(Nc2ccc(N3CCOCC3)cc2)=C(c2ccccc2)C(=O)N1Cc1ccccc1 [Compound 41, 1-Benzyl-3-((4-morpholinophenyl)amino)-4-phenyl-1H-pyrrole-2,5-dione] | 0.106 | 0.035 | – | – | – | –
O=C1C(Nc2ccc3c(c2)OCO3)=C(c2ccccc2)C(=O)N1Cc1ccccc1 [Compound 38, 3-(Benzo[d][1,3]dioxol-5-ylamino)-1-benzyl-4-phenyl-1H-pyrrole-2,5-dione] | 0.045 | 0.042 | – | – | – | –
O=C1C(Nc2ccc(N3CCNCC3)cc2)=C(c2ccccc2)C(=O)N1Cc1ccccc1 [Compound 43, 1-Benzyl-3-phenyl-4-((4-(piperazin-1-yl)phenyl)amino)-1H-pyrrole-2,5-dione] | 0.283 | 1.25 | – | – | – | –
CN(C)c1ccc(NC2=C(c3ccccc3)C(=O)N(Cc3ccccc3)C2=O)cc1 [Compound 35, 1-Benzyl-3-((4-(dimethylamino)phenyl)amino)-4-phenyl-1H-pyrrole-2,5-dione] | 0.091 | 0.071 | – | – | – | –
CN1CCC(Nc2ccc(NC3=C(c4ccccc4)C(=O)N(Cc4ccccc4)C3=O)cc2)CC1 [Compound 48, 1-Benzyl-3-((4-((1-methylpiperidin-4-yl)amino)phenyl)amino)-4-phenyl-1H-pyrrole-2,5-dione] | – | – | – | – | 0.15 | 0.786
COc1ccc(NC2=C(c3ccccc3)C(=O)N(Cc3ccc(F)cc3)C2=O)cc1 [Compound 16, 1-(4-Fluorobenzyl)-3-((4-methoxyphenyl)amino)-4-phenyl-1H-pyrrole-2,5-dione] | 0.594 | 0.768 | – | – | – | –
COc1ccc(NC2=C(c3ccccc3)C(=O)N(CC3CCCCC3)C2=O)cc1 [Compound 22, 1-(Cyclohexylmethyl)-3-((4-methoxyphenyl)amino)-4-phenyl-1H-pyrrole-2,5-dione] | 2.59 | 1.96 | – | – | – | –
Cc1ccc(NC2=C(c3ccccc3)C(=O)N(Cc3ccccc3)C2=O)cc1 [Compound 32, 1-Benzyl-3-phenyl-4-(p-tolylamino)-1H-pyrrole-2,5-dione] | 0.617 | 0.825 | – | – | – | –
COc1ccc(NC2=C(c3ccccc3)C(=O)N(Cc3ccc(C(C)(C)C)cc3)C2=O)cc1 [Compound 20, 1-(4-(tert-Butyl)benzyl)-3-((4-methoxyphenyl)amino)-4-phenyl-1H-pyrrole-2,5-dione] | > 3 | > 3 | – | – | – | –
O=C1C(Nc2ccc(Cl)cc2)=C(c2ccccc2)C(=O)N1Cc1ccccc1 [Compound 30, 1-Benzyl-3-((4-chlorophenyl)amino)-4-phenyl-1H-pyrrole-2,5-dione] | 1.18 | 1.15 | – | – | – | –
